# Experimental data: ChEMBL document CHEMBL1155486, “From 6-aminoquinolone antibacterials to 6-amino-7-thiopyranopyridinylquinolone ethyl esters as inhibitors of Staphylococcus aureus multidrug efflux pumps” (2010)
# Experiments:
# Staphylococcus aureus [1] = assay: Antibacterial activity against Staphylococcus aureus K1305 bearing wild-type GyrA and E84K mutant GrlA by microdilution technique; type: functional
# Staphylococcus aureus [2] = assay: Antibacterial activity against Staphylococcus aureus K1134 bearing wild-type GyrA and S80Y mutant GrlA by microdilution technique; type: functional
# Escherichia coli = assay: Antibacterial activity against Escherichia coli ATCC 25922 by microdilution technique; type: functional
# Staphylococcus aureus [3] = assay: Antibacterial activity against Staphylococcus aureus K1640 bearing S84L mutant GyrA and S80Y mutant GrlA by microdilution technique; type: functional
# Staphylococcus aureus [4] = assay: Antibacterial activity against Staphylococcus aureus K1035 bearing wild-type GyrA and S80F mutant GrlA by microdilution technique; type: functional
# Staphylococcus aureus [5] = assay: Antibacterial activity against Staphylococcus aureus SA-K1902 bearing norA- deficient mutation by microdilution technique; type: functional
# Staphylococcus aureus [6] = assay: Antibacterial activity against wild-type norA expressing Staphylococcus aureus SA-1199 by microdilution technique; type: functional
# Staphylococcus aureus [7] = assay: Antibacterial activity against Staphylococcus aureus K1628 bearing S84L mutant GyrA and S80F mutant GrlA by microdilution technique; type: functional
# Staphylococcus aureus [8] = assay: Antibacterial activity against Staphylococcus aureus SA-1199B norA++ and A116E GrlA mutation by microdilution technique; type: functional
# Staphylococcus aureus [9] = assay: Antibacterial activity against methicillin and ciprofloxacin-resistant Staphylococcus aureus 25A by microdilution technique; type: functional
# Staphylococcus aureus [10] = assay: Antibacterial activity against Staphylococcus aureus SA-K1904 bearing norA++ efficient mutation by microdilution technique; type: functional
# Staphylococcus aureus [11] = assay: Antibacterial activity against Staphylococcus aureus ATCC 25923 by microdilution technique; type: functional
# Staphylococcus aureus [12] = assay: Antibacterial activity against Staphylococcus aureus SA-1199B by EtBr efflux assay; type: functional
# [13] = molecular target: T1, Quinolone resistance protein NorA (Staphylococcus aureus) (UniProt P0A0J7); assay: Inhibition of NorA in Staphylococcus aureus SA-1199B assessed as reduction in ethidium bromide efflux at 50 uM by fluorimetry; design: scale not given: the % may be the effect or the level left
# T1 sequence (whole entry): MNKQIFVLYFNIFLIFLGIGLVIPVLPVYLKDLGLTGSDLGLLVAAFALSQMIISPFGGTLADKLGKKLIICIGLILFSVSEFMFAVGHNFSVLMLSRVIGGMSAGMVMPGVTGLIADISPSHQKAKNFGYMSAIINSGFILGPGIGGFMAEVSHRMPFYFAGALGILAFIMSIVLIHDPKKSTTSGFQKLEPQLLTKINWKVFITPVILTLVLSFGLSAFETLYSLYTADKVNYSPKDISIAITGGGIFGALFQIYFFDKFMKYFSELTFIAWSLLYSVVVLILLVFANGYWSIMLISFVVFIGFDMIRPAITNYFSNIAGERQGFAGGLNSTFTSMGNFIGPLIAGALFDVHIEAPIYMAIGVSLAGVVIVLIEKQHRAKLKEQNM
Structure (SMILES),MIC (Staphylococcus aureus [1]) [µg/mL],MIC (Staphylococcus aureus [2]) [µg/mL],MIC (Escherichia coli) [µg/mL],MIC (Staphylococcus aureus [3]) [µg/mL],MIC (Staphylococcus aureus [4]) [µg/mL],MIC (Staphylococcus aureus [5]) [µg/mL],MIC (Staphylococcus aureus [6]) [µg/mL],MIC (Staphylococcus aureus [7]) [µg/mL],MIC (Staphylococcus aureus [8]) [µg/mL],MIC (Staphylococcus aureus [9]) [µg/mL],MIC (Staphylococcus aureus [10]) [µg/mL],MIC (Staphylococcus aureus [11]) [µg/mL],MIC50 (Staphylococcus aureus [12]) [µg/mL],Activity [13] [%],MIC (Staphylococcus aureus [12]) [µg/mL]
Cc1c(N2CCc3ccccc3C2)c(N)cc2c(=O)c(C(=O)O)cn(C3CC3)c12,≤ 0.02,≤ 0.02,≤ 0.12,0.63,≤ 0.02,≤ 0.02,≤ 0.02,1.25,≤ 0.02,≤ 0.12,≤ 0.02,≤ 0.12,,,
CC1CSC2=C(CN(c3cc4c(cc3N)c(=O)c(C(=O)O)cn4C3CC3)CC2)C1=O (stereo unspecified),,,64,,,1.56,3.13,,12.5,16,6.25,6.25,,,
O=C(O)c1cn(C2CC2)c2cc(N3CCC4=C(C3)C(O)CCS4)c(F)cc2c1=O (stereo unspecified),0.63,1.25,64,> 10,0.63,0.04,0.04,> 10,0.16,8,0.16,0.08,,,
Cc1c(N2CCC3=C(C2)/C(=N/O)CCS3)c(N)cc2c(=O)c(C(=O)O)cn(C3CC3)c12,,,0.5,,,0.63,0.63,,2.5,,0.63,0.31,,,
CO/N=C1\CCSC2=C1CN(c1cc3c(cc1F)c(=O)c(C(=O)O)cn3C1CC1)CC2,,,32,,,1.25,1.25,,2.5,1,1.25,0.25,,,
Cc1c(N2CCC3=C(C2)C(=O)C(C)CS3)c(N)cc2c(=O)c(C(=O)O)cn(C3CC3)c12 (stereo unspecified),1.25,1.25,64,> 10,1.25,0.16,0.16,> 10,0.31,32,0.16,0.08,,,
CC1CSC2=C(CN(c3cc4c(cc3F)c(=O)c(C(=O)O)cn4C3CC3)CC2)/C1=N/O (stereo unspecified),1.25,1.25,32,> 10,1.25,0.16,0.16,> 10,0.31,4,0.31,0.31,,,
Cc1c(N2CCC3=C(C2)/C(=N/O)C(C)CS3)c(N)cc2c(=O)c(C(=O)O)cn(C3CC3)c12 (stereo unspecified),,,0.5,,,0.31,0.31,,1.25,8,0.31,0.16,,,
CO/N=C1\CCSC2=C1CN(c1cc3c(cc1N)c(=O)c(C(=O)O)cn3C1CC1)CC2,,,16,,,1.56,3.13,,12.5,8,3.13,2,,,
Nc1cc2c(=O)c(C(=O)O)cn(C3CC3)c2cc1N1CCC2=C(C1)C(=O)CCS2,,,128,,,3.13,1.56,,25,> 128,6.25,6.25,,,
Nc1cc2c(=O)c(C(=O)O)cn(C3CC3)c2cc1N1CCC2=C(C1)C(O)CCS2 (stereo unspecified),,,128,,,12.5,25,,> 100,128,25,16,,,
CCOC(=O)c1cn(C2CC2)c2cc(N3CCNCC3)c(F)cc2c1=O [CIPROFLOXACIN ETHYL ESTER],,,,,,,,,,,,,> 100,20.8,
O=C(O)c1cn(C2CC2)c2cc(N3CCNCC3)c(F)cc2c1=O [CIPROFLOXACIN],2.5,2.5,≤ 0.12,> 10,2.5,0.31,0.31,> 10,10,32,2.5,0.5,,,
CCOC(=O)c1cn(C2CC2)c2c(C)c(N3CCC4=C(C3)C(=O)CCS4)c(N)cc2c1=O,,,,,,,,,,,,,,36.8,> 100
CCOC(=O)c1cn(C2CC2)c2cc(N3CCC4=C(C3)C(=O)CCS4)c(N)cc2c1=O,,,,,,,,,,,,,,35.7,> 100
CC1CSC2=C(CN(c3cc4c(cc3N)c(=O)c(C(=O)O)cn4C3CC3)CC2)/C1=N/O (stereo unspecified),,,32,,,1.56,1.56,,6.25,32,3.13,6.25,,,
